Data taken from patent publication US9079854B2 (priority 2007, dated 2015).
Where two headings read alike, the source gives them in different places.

Key:
[1] = test system: Paclitaxel-induced neuropathy; experiment: Prevention of paclitaxel-induced neuropathy; format: in vivo, rat; details: 15 mg/kg intraperitoneally 30 minutes prior to paclitaxel; rats
Experimental: A mixture of saline and CREMOPHOR®ELP 10% was used as vehicle for paclitaxel. It was injected at a concentration of 1.0 mg/kg intraperitoneally to the chemotherapy-treated group of rats on 4 consecutive days for a final cumulative dose of 4 mg/kg to 18 rats.
Assessment of neuropathic pain. Paw withdrawal thresholds were determined daily in both hind paws of each animal using calibrated von Frey monofilaments according to an up-down procedure. A series of von Frey filaments with exponentially incremental degrees of stiffness (0.4, 0.7, 1.2, 2.0, 3.6, 5.5, 8.5, and 15.1 g) was used to measure the 50% threshold for both hindpaw withdrawal in awake, unrestrained rats. Chaplan, S. R., Quantitative assessment of tactile allodynia in the rat paw, Journal of Neuroscience Methods, 1994, 53:55-63. […]
Group 1 of rats received paclitaxel for four days, as described immediately above in subpart (A) titled “Paclitaxel-induced Neuropathy.” In group 2, a dose of 15 mg/kg of the compound of Example 6, injected intraperitoneally was administered 30 minutes prior to the administration of paclitaxel. […] Paw withdrawal thresholds were determined daily in both hind paws of each animal using calibrated von Frey monofilaments according to an up-down procedure as described immediately above in subpart (A) titled “Paclitaxel-induced Neuropathy.” The results are shown in FIG. 14.

CB1 = CB1 (Homo sapiens, UniProt P21554); experiment: CB1 functional assay, [35S]GTP-γ-S binding; format: biochemical; design: purchased ES-110-MG; host or cells: CHO membrane extracts
Experimental: A dose response curve was generated at eight concentrations in duplicate on CB1 and CB2 in light of reference agonists.
Membranes (CB1, ES-110-MG or CB2, ES-111-MG) are mixed with GDP (volume:volume) and incubated for at least […] on ice. In parallel, […] are mixed with the beads (volume:volume) just before starting the reaction. The following reagents are successively added in the wells of an Optiplate: 50 μl of ligand, 20 μl of the membranes:GDP mix, 10 μl of assay buffer for agonist testing and 20 μl of the […]: beads mix. The plates are covered with a topseal, shaken on an orbital shaker for 2 min, and then incubated between 30 to 60 min at room temperature. Then the plates are centrifuged for 10 min at 2000 rpm, incubated at room temperature between 1 to 4 hours and counted for 1 min with a PerkinElmer TopCount reader.
Functional activity for acyl hydrazone was evaluated using [^35S]GTP-γ-S assay in CHO membrane extracts expressing recombinant hCB1 receptor or hCB2 receptor. The assay relies on the binding of [^35S]GTP-γ-S, a radiolabeled nonhydrolyzable GTP analogue, to the G protein upon binding of an agonist of the G-protein-coupled receptor. In this system, agonists stimulate [^35S]GTP-γ-S binding whereas neutral antagonist have no effect and inverse agonists decrease [^35S]GTP-γ-S basal binding.
CB1 and CB2 assay data are presented as the mean of two determinations. […] For replicate determinations, the maximum variability tolerated in the test was of ±20% around the average of the replicates.

Chain of CB1 (P21554 whole entry): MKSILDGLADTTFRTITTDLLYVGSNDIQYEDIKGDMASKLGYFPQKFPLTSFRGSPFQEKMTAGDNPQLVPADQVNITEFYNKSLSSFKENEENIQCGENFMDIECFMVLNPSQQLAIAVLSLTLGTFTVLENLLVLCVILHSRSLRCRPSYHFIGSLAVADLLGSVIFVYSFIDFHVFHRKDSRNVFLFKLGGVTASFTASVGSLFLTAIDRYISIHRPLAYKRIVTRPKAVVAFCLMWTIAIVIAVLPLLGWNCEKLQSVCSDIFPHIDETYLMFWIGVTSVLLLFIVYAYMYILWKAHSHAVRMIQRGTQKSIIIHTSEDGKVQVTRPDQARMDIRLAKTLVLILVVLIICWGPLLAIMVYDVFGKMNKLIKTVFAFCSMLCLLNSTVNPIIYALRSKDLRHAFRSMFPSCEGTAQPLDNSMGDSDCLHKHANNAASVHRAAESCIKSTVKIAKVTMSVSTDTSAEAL

In the case of `CCCCCCN1C(=O)/C(=N\NC(=O)c2ccccc2)c2ccccc21` [Example 6, Benzoic acid [1-n-hexyl-2-oxo-1,2-dihydro-indol-3-ylidene]-hydrazide], the “development of paclitaxel-induced peripheral neuropathy (paw withdrawal threshold)” value [1] is reported as “prevented the development of neuropathic pain induced by paclitaxel”, the “% Activation Average” value (CB1; CB1 Functional Activity) is reported as 59.65% and the “Compound Activity” value (CB1; CB1 Functional Activity) is reported as “Agonist”. The EC50 (CB1; CB1 Functional Activity, read-out: EC50 (nM) for GTP Binding) was 867 nM, the EC50 (CB1; Table 7, mean of two determinations, read-out: [35S]GTP-γ-S (hCB1) EC50 (nM ± SEM)) was 867 ± 1.1 nM and the Emax (CB1; Table 7, relative to the efficacy of CP55940) was 59.7%. For the same compound, the EC50 (CB1; Table 9, mean of two determinations, read-out: [35S]GTP-γ-S hCB1 EC50 (nM ± SEM)) was 867 ± 1.1 nM and the Emax (CB1; Table 9, relative to the efficacy of CP 55,940) was 59.7%.
